Measurements reported in patent US8614238B2, “Cyclopentanecarboxamide derivatives, medicaments containing such compounds and their use” (Boehringer Ingelheim International GmbH, priority 2009, dated 2013).

Assays:
[1] = target: T1, Fatty Acid Synthase (FAS) (Homo sapiens, UniProt P49327); test: Human FAS Enzyme Assay; format: biochemical; settings: FAS enzyme prepared from HeLa cells; NADPH consumption; read-out: IC50 (potency range)
T1 construct: The FAS enzyme is prepared from HeLa cells; endogenous in cells; host or cells: HeLa cells
Description: Fatty acid synthase is an enzyme complex that harbours seven enzymatic activities catalysing the reductive synthesis of long chain fatty acids from acetyl CoA and malonyl CoA to palmitate. When acetyl CoA and malonyl CoA are forming palmitate NADPH is consumed forming NADP. Since NADPH is fluorescent but not NADP the reaction can be measured by analysing the decrease in fluorescence.
Acetyl coenzyme A (cat.-no. A-2181) and malonyl coenzyme A (cat.-no. M-4263) are purchased from Sigma. NADPH (cat.-no. 30316) is purchased from Serva. The FAS enzyme is prepared from HeLa cells. All other material is of highest grade commercially available.
In the plates, 10 μl test compound in distilled water/DMSO (final concentration 0.1% DMSO) are mixed with 35 μl of a mixture of NADPH and acetyl CoA in phosphate buffer (f.c. 326 μM and 60 μM, respectively), and 45 μl FAS enzyme diluted in enzyme buffer. The plates are incubated for 60 minutes at 37° C. The reaction is then started by the addition of 10 μl malonyl CoA dissolved in water (200 μM). The decrease of the optical density in the wells is determined at 37° C. at a wavelength of 340 nm over 10 minutes. From these kinetic data, the slope (i.e. Vmax) is calculated and used for the calculation.
20 mM KH2PO4/K2HPO4, 1 mM EDTA, 1 mM DTT, 5% glycerol, pH 7.4
Each assay 96 well microtiter plate contains wells with vehicle controls instead of compound (1% DMSO in water) as reference for non-inhibited enzyme activity and wells without malonyl CoA as controls for non-specific NADPH degradation. The analysis of the data is performed by the calculation of the OD decrease in the presence of the test compound compared to the OD decrease of the test control wells after subtraction of the non-specific background without the malonyl CoA substrate (slope(sample)-slope(sample w/o malonyl CoA). An inhibitor of the FAS enzyme will give values between Control values (complete reaction without substance) and complete inhibition. Reported values will include: IC50; Top(Control: nmol NADPH oxidized/min/mg); Bottom (MaxInh: nmol NADPH oxidized/min/mg); RATIO (log(IC50 substance/IC50 control inhibitor)).

N-42 cells = test: 14C-acetate incorporation in N-42 cells; format: cell-based
Description: ^14C-Acetat Incorporation in N-42 Cells
30000 cells (N-42), in 24 well plates are incubated with the compound dissolved in 500 μL Krebs-Ringer-buffer for 60 min at 37° C., then incubated with 5 μL 1:10 14C-Acetate dilution (1 000 000 dpm) for 4 hours at 37° C. incubation, then washed with 500 μl PBS. 500 μL chloroform/methanol mix 1:1 and 175 μL sodium hydroxide solution was given in each well. The upper fraction is taken away and the lower fraction is vaporized. 50 μL chloroform/methanol mix 1:1 is again given in every well. 10 μL each are taken and given to scintillation vials with 4 mL Ultima Gold. Each vial is measured for 1 minute in a β-Counter.
Cerulenin, a literature known FAS inhibitor is used to validate the assay.

sebaceous glands = test: In vivo activity on sebaceous glands in rats; set-up: species or system Wistar rats
Description: In vivo activity of the FAS inhibitors on sebaceous glands is determined as exemplified with the following experiment: Female Wistar rats [Crl:Wi(Han); Charles River, Germany] weighing 200-240 g are conventionally housed in Makrolon type cages at a constant temperature of 22±3° C., on a 12 h light/dark cycle. Food and water are provided ad libitum. The animals (n=7 per group) are orally treated once daily with 3, 10 and 30 mg/kg of compound 1.2 in a suspension with 0.5% Natrosol for seven days. All experimental procedures are conducted according to the German Animal Protection Law. Beginning with day 4 of treatment, at the highest dose effects on skin and coat of the animals could be detected. […] With longer treatment alopecia and cutaneous lesions also developed at the skin of the back. At day seven the animals are euthanized and representative tissue samples of the eye lid, muzzle and back skin are collected into 4% formaldehyde solution for microscopic examination. After trimming, the fixed tissues are processed, embedded in paraffin, sectioned at a thickness of approximately 4 μm and stained with hematoxylin-eosin (H&E). […] This lesion is sometimes accompanied by a slight inflammatory reaction.

[2] = female Wistar rats, highest dose (30 mg/kg orally once daily), beginning with day 4 of treatment

T1 sequence (P49327 whole entry): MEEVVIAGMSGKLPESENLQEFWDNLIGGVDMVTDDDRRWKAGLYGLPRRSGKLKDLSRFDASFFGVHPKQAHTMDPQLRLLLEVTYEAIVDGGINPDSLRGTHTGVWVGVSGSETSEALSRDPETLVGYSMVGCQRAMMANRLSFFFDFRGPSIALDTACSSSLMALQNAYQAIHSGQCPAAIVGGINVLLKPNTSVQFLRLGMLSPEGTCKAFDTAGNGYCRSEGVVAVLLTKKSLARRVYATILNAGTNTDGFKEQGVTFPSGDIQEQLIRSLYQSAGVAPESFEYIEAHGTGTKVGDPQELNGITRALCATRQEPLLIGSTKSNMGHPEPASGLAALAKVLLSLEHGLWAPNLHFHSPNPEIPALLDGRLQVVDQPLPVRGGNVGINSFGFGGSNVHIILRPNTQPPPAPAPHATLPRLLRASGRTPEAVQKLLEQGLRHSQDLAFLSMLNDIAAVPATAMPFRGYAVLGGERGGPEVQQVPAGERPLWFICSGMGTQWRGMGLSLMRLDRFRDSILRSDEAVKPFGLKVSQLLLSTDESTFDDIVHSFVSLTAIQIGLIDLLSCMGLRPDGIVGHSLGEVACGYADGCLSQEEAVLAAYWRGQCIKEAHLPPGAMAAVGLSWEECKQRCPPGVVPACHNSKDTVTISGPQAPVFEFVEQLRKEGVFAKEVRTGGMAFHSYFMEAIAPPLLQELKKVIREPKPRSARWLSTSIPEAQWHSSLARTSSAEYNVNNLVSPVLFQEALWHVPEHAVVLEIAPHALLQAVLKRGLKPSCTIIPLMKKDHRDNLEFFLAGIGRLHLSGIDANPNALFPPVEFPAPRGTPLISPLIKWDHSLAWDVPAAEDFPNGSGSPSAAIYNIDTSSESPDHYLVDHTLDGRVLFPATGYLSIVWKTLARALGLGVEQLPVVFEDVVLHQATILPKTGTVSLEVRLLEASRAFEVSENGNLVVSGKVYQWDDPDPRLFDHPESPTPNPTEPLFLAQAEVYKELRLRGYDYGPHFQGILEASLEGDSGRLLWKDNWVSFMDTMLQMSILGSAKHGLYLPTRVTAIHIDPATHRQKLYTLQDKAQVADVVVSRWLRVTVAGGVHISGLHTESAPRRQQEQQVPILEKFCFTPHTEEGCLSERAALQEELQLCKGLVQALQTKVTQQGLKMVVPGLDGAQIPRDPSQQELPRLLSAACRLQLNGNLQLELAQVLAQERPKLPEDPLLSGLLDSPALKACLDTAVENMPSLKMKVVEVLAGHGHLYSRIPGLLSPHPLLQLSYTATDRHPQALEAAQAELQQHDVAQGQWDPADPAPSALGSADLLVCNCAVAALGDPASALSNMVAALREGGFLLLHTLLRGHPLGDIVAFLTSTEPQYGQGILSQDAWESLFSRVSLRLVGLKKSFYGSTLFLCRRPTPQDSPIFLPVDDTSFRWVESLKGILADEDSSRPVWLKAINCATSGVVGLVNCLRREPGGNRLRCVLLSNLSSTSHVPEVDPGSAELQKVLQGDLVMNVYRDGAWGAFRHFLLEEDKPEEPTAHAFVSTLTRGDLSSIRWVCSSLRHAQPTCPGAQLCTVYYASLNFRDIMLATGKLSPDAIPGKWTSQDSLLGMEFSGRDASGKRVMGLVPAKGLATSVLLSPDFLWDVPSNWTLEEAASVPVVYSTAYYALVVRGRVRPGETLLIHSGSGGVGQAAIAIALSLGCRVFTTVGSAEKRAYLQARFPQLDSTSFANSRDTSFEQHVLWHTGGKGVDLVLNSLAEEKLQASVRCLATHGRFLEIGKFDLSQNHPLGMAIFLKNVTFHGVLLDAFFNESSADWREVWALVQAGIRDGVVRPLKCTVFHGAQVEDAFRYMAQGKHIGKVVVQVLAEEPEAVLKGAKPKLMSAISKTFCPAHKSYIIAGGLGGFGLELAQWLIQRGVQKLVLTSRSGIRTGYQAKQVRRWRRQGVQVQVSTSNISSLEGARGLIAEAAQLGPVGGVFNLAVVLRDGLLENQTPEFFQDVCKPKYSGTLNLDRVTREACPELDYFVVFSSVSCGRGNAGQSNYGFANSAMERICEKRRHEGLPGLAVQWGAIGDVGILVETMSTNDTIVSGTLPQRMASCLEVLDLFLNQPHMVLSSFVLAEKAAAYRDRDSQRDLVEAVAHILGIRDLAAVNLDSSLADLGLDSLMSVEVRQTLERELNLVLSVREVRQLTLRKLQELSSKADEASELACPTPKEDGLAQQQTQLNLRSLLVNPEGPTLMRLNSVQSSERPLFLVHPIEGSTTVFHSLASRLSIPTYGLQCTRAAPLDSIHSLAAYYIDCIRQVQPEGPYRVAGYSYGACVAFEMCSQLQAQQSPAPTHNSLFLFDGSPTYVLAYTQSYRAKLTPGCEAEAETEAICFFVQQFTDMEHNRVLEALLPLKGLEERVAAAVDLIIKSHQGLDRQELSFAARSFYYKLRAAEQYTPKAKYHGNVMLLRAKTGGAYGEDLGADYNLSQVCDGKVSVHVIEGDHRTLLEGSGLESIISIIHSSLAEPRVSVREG

Row | Structure (SMILES) | IC50 [1] [nM] | further results
1 | CC(=O)N[C@H]1CC[C@@H](C(=O)N(C)c2ccc(-c3nc4ccccc4[nH]3)cc2)C1 [Example 2.2, (1R,3S)-3-Acetylamino-cyclopentanecarboxylic acid N-[4′-(1H-benzoimidazol-2-yl)-phenyl]-N-methyl-amide] | 500 to 3000 | –
2 | CCNC(=O)N[C@H]1CC[C@@H](C(=O)N(C)c2ccc(-c3ccccc3)cc2)C1 [Example 3.4, (1R,3S)-3-(3-Ethyl-ureido)-cyclopentanecarboxylic acid N-biphenyl-4-yl-N-methyl-amide] | 500 to 3000 | –
3 | CC(C)C(=O)N[C@H]1CC[C@@H](C(=O)N(C)c2ccc(-c3ccccc3)cc2)C1 [Example 3.2, (1R,3S)-3-Isobutyrylamino-cyclopentanecarboxylic acid N-biphenyl-4-yl-N-methyl-amide] | ≤ 500 | –
4 | CCNC(=O)N[C@H]1CC[C@@H](C(=O)N(C)c2ccc(-c3nc4ccccc4n3C)cc2)C1 [Example 4.1, (1R,3S)-3-(3-Ethyl-ureido)-cyclopentanecarboxylic acid N-methyl-N-[4-(1-methyl-1H-benzoimidazol-2-yl)-phenyl]-amide] | 500 to 3000 | –
5 | CCC(=O)N[C@H]1CC[C@@H](C(=O)N(C)c2ccc(-c3ccccc3)cc2)C1 [Example 3.1, (1R,3S)-3-Propionylamino-cyclopentanecarboxylic acid N-biphenyl-4-yl-N-methyl-amide] | ≤ 500 | % control 14C acetate incorporation (N-42 cells; compound at 10 μM): 76.8 % control
6 | CCC(=O)N[C@H]1CC[C@@H](C(=O)N(C)c2ccc(-c3cn4ccccc4n3)cc2)C1 [Example 5.2, (1R,3S)-3-Propionylamino-cyclopentanecarboxylic acid N-[4-(imidazo[1,2-a]pyridin-2-yl)-phenyl]-N-methyl-amide] | 500 to 3000 | –
7 | CC(C)C(=O)N[C@H]1CC[C@@H](C(=O)N(C)c2ccc(-c3nc4ccccc4[nH]3)cc2)C1 [Example 2.3, (1R,3S)-3-Isobutyrylamino-cyclopentanecarboxylic acid N-[4′-(1H-benzoimidazol-2-yl)-phenyl]-N-methyl-amide] | 500 to 3000 | –
8 | C/C=C/C/C=C/CCC(=O)[C@H]1O[C@H]1C(N)=O [Cerulenin, reference compound] | – | % control 14C acetate incorporation (N-42 cells; compound at 100 μM): 73.3 % control
9 | CCNC(=O)N[C@H]1CC[C@@H](C(=O)N(C)c2ccc(-c3nc4ccccc4[nH]3)cc2)C1 [Example 2.4, (1R,3S)-3-(3-Ethyl-ureido)-cyclopentanecarboxylic acid N-[4′-(1H-benzoimidazol-2-yl)-phenyl]-N-methyl-amide] | ≤ 500 | –
10 | CC(=O)N[C@H]1CC[C@@H](C(=O)N(C)c2ccc(-c3ccccc3)cc2)C1 [Example 3.3, (1R,3S)-3-Acetylamino-cyclopentanecarboxylic acid N-biphenyl-4-yl-N-methyl-amide] | ≤ 500 | –

The next lines start with results.

Row | IC50 [1] [nM] | Structure (SMILES) | further results
11 | ≤ 500 | CN(C)C(=O)N[C@H]1CC[C@@H](C(=O)N(C)c2ccc(-c3nc4ccccc4o3)cc2)C1 [Example 1.7, (1R,3S)-3-(3,3-Dimethyl-ureideo)-cyclopentanecarboxylic acid N-(4-benzooxazol-2-yl-phenyl)-N-methyl-amide] | –
12 | ≤ 500 | CCC(=O)N[C@H]1CC[C@@H](C(=O)N(C)c2ccc(-c3nc4ccccc4[nH]3)cc2)C1 [Example 2.1, (1R,3S)-3-Propionylamino-cyclopentanecarboxylic acid N-[4′-(1H-benzoimidazol-2-yl)-phenyl]-N-methyl-amide] | % control 14C acetate incorporation (N-42 cells; compound at 10 μM): 80.8 % control
13 | 500 to 3000 | CN(C)CCCCCC(=O)N[C@H]1CC[C@@H](C(=O)N(C)c2ccc(-c3nc4ccccc4n3C)cc2)C1 [Example 4.2, (1R,3S)-3-(6-Dimethylamino-hexanoylamino)-cyclopentanecarboxylic acid N-methyl-N-[4-(1-methyl-1H-benzoimidazol-2-yl)-phenyl]-amide] | –
14 | ≤ 500 | CCC(=O)N[C@H]1CC[C@@H](C(=O)N(C)c2ccc(-c3nc4ccccc4o3)cc2)C1 [Example 1.2, (1R,3S)-3-Propionylamino-cyclopentanecarboxylic acid N-(4-benzooxazol-2-yl-phenyl)-N-methyl-amide] | % control 14C acetate incorporation (N-42 cells; compound at 10 μM): 64.1 % control; microscopic examination of skin (eye lid, muzzle, back skin) (sebaceous glands; female Wistar rats, 3, 10 and 30 mg/kg orally once daily for seven days, all dose groups): treatment-related diffuse atrophy of sebaceous glands of the skin; effects on skin and coat of the animals (sebaceous glands; [2]): progressive cranial alopecia; skin of the mouth and eye lid (sebaceous glands; [2]): reddened and swollen
15 | ≤ 500 | CN(C(=O)[C@@H]1CC[C@H](NC(=O)C(F)F)C1)c1ccc(-c2nc3ccccc3o2)cc1 [Example 1.8, (1R,3S)-3-(2,2-Difluoro-acetylamino)-cyclopentanecarboxylic acid N-(4-benzooxazol-2-yl-phenyl)-N-methyl-amide] | –
16 | ≤ 500 | CC(=O)N[C@H]1CC[C@@H](C(=O)N(C)c2ccc(-c3nc4ccccc4o3)cc2)C1 [Example 1.3, (1R,3S)-3-Acetylamino-cyclopentanecarboxylic acid N-(4-benzooxazol-2-yl-phenyl)-N-methyl-amide] | % control 14C acetate incorporation (N-42 cells; compound at 10 μM): 81.7 % control
17 | ≤ 500 | CCCC(=O)N[C@H]1CC[C@@H](C(=O)N(C)c2ccc(-c3nc4ccccc4o3)cc2)C1 [Example 1.6, (1R,3S)-3-Butyrylamino-cyclopentanecarboxylic acid N-(4-benzooxazol-2-yl-phenyl)-N-methyl-amide] | % control 14C acetate incorporation (N-42 cells; compound at 10 μM): 81.0 % control
18 | 500 to 3000 | CN(C)CCCCCC(=O)N[C@H]1CC[C@@H](C(=O)N(C)c2ccc(-c3nc4ccccc4[nH]3)cc2)C1 [Example 2.5, (1R,3S)-3-(6-Dimethylamino-hexanoylamino)-cyclopentanecarboxylic acid N-[4′-(1H-benzoimidazol-2 yl)-phenyl]-N-methyl-amide] | –
19 | 500 to 3000 | COCC(=O)N[C@H]1CC[C@@H](C(=O)N(C)c2ccc(-c3nc4ccccc4o3)cc2)C1 [Example 1.5, (1R,3S)-3-(2-Methoxy-acetylamino)-cyclopentanecarboxylic acid N-(4-benzooxazol-2-yl-phenyl)-N-methyl-amide] | –
20 | ≤ 500 | CCC(=O)N[C@H]1CC[C@@H](C(=O)N(C)c2ccc(-c3nc4ccccc4n3C)cc2)C1 [Example 5.1, (1R,3S)-3-Propionylamino-cyclopentanecarboxylic acid N-methyl-N-[4-(1-methyl-1H-benzoimidazol-2-yl)-phenyl]-amide] | % control 14C acetate incorporation (N-42 cells; compound at 10 μM): 85.7 % control
21 | 500 to 3000 | CN(C)CCCCCC(=O)N[C@H]1CC[C@@H](C(=O)N(C)c2ccc(-c3ccccc3)cc2)C1 [Example 3.5, (1R,3S)-3-(6-Dimethylamino-hexanoylamino)-cyclopentanecarboxylic acid N-biphenyl-4-yl-N-methyl-amide] | –
22 | 500 to 3000 | CN(C)CCCCCC(=O)N[C@H]1CC[C@@H](C(=O)N(C)c2ccc(-c3nc4ccccc4o3)cc2)C1 [Example 1.4, (1R,3S)-3-(6-Dimethylamino-hexanoylamino)-cyclopentanecarboxylic acid N-(4-benzooxazol-2-yl-phenyl)-N-methyl-amide] | –
23 | 500 to 3000 | CCNC(=O)N[C@H]1CC[C@@H](C(=O)N(C)c2ccc(-c3nc4ccccc4o3)cc2)C1 [Example 1.1, (1R,3S)-3-(3-Ethyl-ureido)-cyclopentanecarboxylic acid N-(4-benzooxazol-2-yl-phenyl)-N-methyl-amide] | –
